Assay results as given in EP0801947B1, “Use of octopirox as skin depigmentation agent” (L'OREAL, priority 1996, dated 1997).

Test system: tyrosinase de champignons
Experiment: Inhibition of the dopa-oxidase activity of mushroom tyrosinase (dopachrome formation followed by visible spectrometry at 475 nm)
Format: biochemical
Text: Un test a mis en évidence l'activité de l'octopirox comme inhibiteur de la tyrosinase par évaluation de son effet inhibiteur sur l'activité dopa-oxydase de la tyrosinase des mélanocytes de champignons.
Selon ce test, on suit par spectrométrie visible à 475 nm la quantité de dopachrome formée au cours de la chaîne de réaction de transformation de la tyrosine en mélanine, en fonction du temps. Ces réactions sont catalysées in vitro par la tyrosinase de champignons, en présence d'un co-substrat réducteur (la L-dopa en petite quantité) pour initier la réaction d'hydroxylation de la L-tyrosine en L-dopa, laquelle est ensuite oxydée catalytiquement en dopaquinone puis en dopachrome, produit intermédiaire avant les réactions d'oxydation non enzymatiques aboutissant à la formation de mélanine.
Le milieu réactionnel utilisé pour réaliser ce test comprend 1 ml d'une solution de L-tyrosine à 2.10^-3 M dans du tampon phosphate 0,1 M de pH = 6,5, 0,1 ml de solution de L-dopa à 10^-4 M dans le tampon phosphate, 0,05 ml de solution de tyrosinase de champignons à 2.400 unités/ml dans le tampon phosphate et 1,85 ml de solution de l'inhibiteur à 10^-2 M dans le tampon phosphate. Pour le témoin, la quantité d'inhibiteur a été remplacée par de l'éthanol. […]
La concentration de 10^-2 M d'octopirox dans le milieu réactionnel correspond à une quantité équimolaire par rapport à la tyrosine utilisée. […]

## Cc1cc(CC(C)CC(C)(C)C)n(O)c(=O)c1 (centres unmarked) [octopirox, 1-hydroxy-4-méthyl-6-(2,4,4-triméthylpentyl)-2(1H)-pyridinone]
Inhibitor solution 10^-2 M in phosphate buffer 0,1 M pH 6,5, L-tyrosine 2.10^-3 M, L-dopa 10^-4 M, control (ethanol) 9,5 minutes, figure 1 curves (b)
  temps pour obtenir le même pourcentage de dopachrome formée, par exemple 100 %: 14 min
Inhibitor solution 10^-2 M, compared with control curve (a), figure 1, result in words
  quantité de dopachrome formée au cours du temps: net ralentissement de la quantité de dopachrome formée au cours du temps
